Laboratory results published in the NIST ThermoML archive (doi:10.1016/j.jct.2007.09.001).
Numbers after ± are expanded uncertainties.

Conditions: 298.15 K, Calvet calorimetry with correction to 298 K for gas heat capacity

SMILES: Cc1cc(C)n(C)n1 [1,3,5-trimethylpyrazole]
- molar enthalpy of sublimation (Crystal): 14.7 ± 0.765 kcal/mol

SMILES: Cc1cc[nH]n1 [3-methylpyrazole]
- molar enthalpy of vaporization (Liquid): 15.8 ± 0.956 kcal/mol
